Measurements reported in ChEMBL document CHEMBL3596165, “Synthesis, structure elucidation and identification of antiproliferative activities of a novel class of thiophene bioisosteres bearing the privileged 7,8-dihydroimidazo[2,1-c][1,2,4]triazin-4(6H)-one scaffold” (Bioorg Med Chem, 2015).

Tests used:
[1] = Antiproliferative activity against African green monkey Vero cells at 100 ug/ml after 72 hrs by BrdUrd incorporation assay; format: cell-based; settings: chlorocebus sabaeus, read-out: GI
[2] = system: A549; assay: Antiproliferative activity against human A549 cells at 100 ug/ml after 72 hrs by BrdUrd incorporation assay; format: functional; settings: A549, 72 h, read-out: GI
[3] = Antiproliferative activity against African green monkey Vero cells at 100 ug/ml after 48 hrs by BrdUrd incorporation assay; format: cell-based; settings: chlorocebus sabaeus, read-out: GI
[4] = system: T47D; assay: Antiproliferative activity against human T47D cells at 100 ug/ml after 24 hrs by BrdUrd incorporation assay; format: functional; settings: read-out: GI
[5] = system: Vero; assay: Antiproliferative activity against African green monkey Vero cells at 100 ug/ml after 24 hrs by BrdUrd incorporation assay; format: cell-based; settings: chlorocebus sabaeus
[6] = system: HeLa; assay: Antiproliferative activity against human HeLa cells at 100 ug/ml after 48 hrs by BrdUrd incorporation assay; format: functional; settings: read-out: GI
[7] = system: HeLa; assay: Antiproliferative activity against human HeLa cells at 100 ug/ml after 72 hrs by BrdUrd incorporation assay; format: functional; settings: read-out: GI
[8] = system: A549; assay: Antiproliferative activity against human A549 cells at 100 ug/ml after 48 hrs by BrdUrd incorporation assay; format: functional; settings: A549, 48 h, read-out: GI
[9] = system: T47D; assay: Antiproliferative activity against human T47D cells at 100 ug/ml after 48 hrs by BrdUrd incorporation assay; format: functional; settings: read-out: GI
[10] = system: T47D; assay: Antiproliferative activity against human T47D cells at 100 ug/ml after 72 hrs by BrdUrd incorporation assay; format: functional; settings: read-out: GI
[11] = system: HeLa; assay: Antiproliferative activity against human HeLa cells at 100 ug/ml after 24 hrs by BrdUrd incorporation assay; format: functional; settings: read-out: GI
[12] = system: A549; assay: Antiproliferative activity against human A549 cells at 100 ug/ml after 24 hrs by BrdUrd incorporation assay; format: functional; settings: A549, 24 h, read-out: GI
[13] = system: Vero; assay: Antiproliferative activity against African green monkey Vero cells after 72 hrs by BrdUrd incorporation assay; format: cell-based; settings: Chlorocebus sabaeus
[14] = system: T47D; assay: Antiproliferative activity against human T47D cells at 50 ug/ml after 72 hrs by BrdUrd incorporation assay; format: functional; settings: read-out: GI
[15] = system: Vero; assay: Antiproliferative activity against African green monkey Vero cells after 24 hrs by BrdUrd incorporation assay; format: cell-based; settings: chlorocebus sabaeus
[16] = system: HeLa; assay: Antiproliferative activity against human HeLa cells after 72 hrs by BrdUrd incorporation assay; format: functional, cell-based
[17] = system: TOV112D; assay: Antiproliferative activity against human TOV112D cells after 24 hrs by BrdUrd incorporation assay; format: functional, cell-based
[18] = Antiproliferative activity against African green monkey Vero cells at 50 ug/ml after 72 hrs by BrdUrd incorporation assay; format: cell-based; settings: chlorocebus sabaeus, read-out: GI
[19] = system: TOV112D; assay: Antiproliferative activity against human TOV112D cells at 50 ug/ml after 48 hrs by BrdUrd incorporation assay; format: functional; settings: read-out: GI
[20] = system: A549; assay: Antiproliferative activity against human A549 cells after 72 hrs by BrdUrd incorporation assay; format: functional, cell-based; settings: A549, 72 h
[21] = Antiproliferative activity against African green monkey Vero cells at 50 ug/ml after 48 hrs by BrdUrd incorporation assay; format: cell-based; settings: chlorocebus sabaeus, read-out: GI
[22] = system: TOV112D; assay: Antiproliferative activity against human TOV112D cells at 50 ug/ml after 24 hrs by BrdUrd incorporation assay; format: functional; settings: read-out: GI
[23] = system: TOV112D; assay: Antiproliferative activity against human TOV112D cells at 50 ug/ml after 72 hrs by BrdUrd incorporation assay; format: functional; settings: read-out: GI
[24] = system: T47D; assay: Antiproliferative activity against human T47D cells after 24 hrs by BrdUrd incorporation assay; format: functional, cell-based
[25] = system: HeLa; assay: Antiproliferative activity against human HeLa cells at 50 ug/ml after 24 hrs by BrdUrd incorporation assay; format: functional; settings: read-out: GI
[26] = system: TOV112D; assay: Antiproliferative activity against human TOV112D cells after 48 hrs by BrdUrd incorporation assay; format: functional, cell-based
[27] = system: Vero; assay: Antiproliferative activity against African green monkey Vero cells at 50 ug/ml after 24 hrs by BrdUrd incorporation assay; format: cell-based; settings: chlorocebus sabaeus
[28] = system: T47D; assay: Antiproliferative activity against human T47D cells after 48 hrs by BrdUrd incorporation assay; format: functional, cell-based
[29] = system: T47D; assay: Antiproliferative activity against human T47D cells at 50 ug/ml after 48 hrs by BrdUrd incorporation assay; format: functional; settings: read-out: GI
[30] = system: HeLa; assay: Antiproliferative activity against human HeLa cells after 48 hrs by BrdUrd incorporation assay; format: functional, cell-based
[31] = system: A549; assay: Antiproliferative activity against human A549 cells at 50 ug/ml after 72 hrs by BrdUrd incorporation assay; format: functional; settings: A549, 72 h, read-out: GI
[32] = system: A549; assay: Antiproliferative activity against human A549 cells at 50 ug/ml after 24 hrs by BrdUrd incorporation assay; format: functional; settings: A549, 24 h, read-out: GI
[33] = system: Vero; assay: Antiproliferative activity against African green monkey Vero cells after 48 hrs by BrdUrd incorporation assay; format: cell-based; settings: Chlorocebus sabaeus
[34] = system: HeLa; assay: Antiproliferative activity against human HeLa cells after 24 hrs by BrdUrd incorporation assay; format: functional, cell-based
[35] = system: T47D; assay: Antiproliferative activity against human T47D cells after 72 hrs by BrdUrd incorporation assay; format: functional, cell-based
[36] = system: A549; assay: Antiproliferative activity against human A549 cells after 24 hrs by BrdUrd incorporation assay; format: functional, cell-based; settings: A549, 24 h
[37] = system: TOV112D; assay: Antiproliferative activity against human TOV112D cells after 72 hrs by BrdUrd incorporation assay; format: functional, cell-based
[38] = system: T47D; assay: Antiproliferative activity against human T47D cells at 50 ug/ml after 24 hrs by BrdUrd incorporation assay; format: functional; settings: read-out: GI
[39] = system: A549; assay: Antiproliferative activity against human A549 cells at 50 ug/ml after 48 hrs by BrdUrd incorporation assay; format: functional; settings: A549, 48 h, read-out: GI
[40] = system: HeLa; assay: Antiproliferative activity against human HeLa cells at 50 ug/ml after 72 hrs by BrdUrd incorporation assay; format: functional; settings: read-out: GI
[41] = system: A549; assay: Antiproliferative activity against human A549 cells after 48 hrs by BrdUrd incorporation assay; format: functional, cell-based; settings: A549, 48 h
[42] = system: HeLa; assay: Antiproliferative activity against human HeLa cells at 50 ug/ml after 48 hrs by BrdUrd incorporation assay; format: functional; settings: read-out: GI

Nc1nc2[nH]cc(CCc3ccc(C(=O)N[C@@H](CCC(=O)O)C(=O)O)cc3)c2c(=O)[nH]1 [PEMETREXED]
inhibition at 72 h, 100 ug/ml [1]: 20% | inhibition of growth at 100 µg/mL [2]: 50% | inhibition at 48 h, 100 ug/ml [3]: 10% | inhibition of growth at 100 µg/mL [4]: 10% | growth inhibition (GI) [5]: 5% | inhibition of growth at 100 µg/mL [6]: 10% | inhibition of growth at 100 µg/mL [7]: 20% | inhibition of growth at 100 µg/mL [8]: 30% | inhibition of growth at 100 µg/mL [9]: 20% | inhibition of growth at 100 µg/mL [10]: 30% | inhibition of growth at 100 µg/mL [11]: 5% | inhibition of growth at 100 µg/mL [12]: 10%

O=c1c(-c2cccs2)nnc2n1CCN2c1cccc(Cl)c1
IC50 [13]: 80 µM | inhibition of growth at 50 µg/mL [14]: 100% | IC50 [15]: 80 µM | IC50 [16]: 80 µM | IC50 [17]: 80 µM | inhibition at 72 h, 50 ug/ml [18]: 100% | inhibition of growth at 50 µg/mL [19]: 100% | IC50 [20]: 80 µM | inhibition at 48 h, 50 ug/ml [21]: 100% | inhibition of growth at 50 µg/mL [22]: 90% | inhibition of growth at 50 µg/mL [23]: 100% | IC50 [24]: 80 µM | inhibition of growth at 50 µg/mL [25]: 90% | IC50 [26]: 80 µM | growth inhibition (GI) [27]: 100% | IC50 [28]: 80 µM | inhibition of growth at 50 µg/mL [29]: 100% | IC50 [30]: 80 µM | inhibition of growth at 50 µg/mL [31]: 100% | inhibition of growth at 50 µg/mL [32]: 90% | IC50 [33]: 80 µM | IC50 [34]: 80 µM | IC50 [35]: 80 µM | IC50 [36]: 80 µM | IC50 [37]: 80 µM | inhibition of growth at 50 µg/mL [38]: 100% | inhibition of growth at 50 µg/mL [39]: 100% | inhibition of growth at 50 µg/mL [40]: 100% | IC50 [41]: 80 µM | inhibition of growth at 50 µg/mL [42]: 100%
